Patent US20090317838A1, “DETECTION OF BACTERIAL PEPTIDOGLYCAN-LIKE COMPOUNDS” (priority 2008, published 2009)

Experiments:
NOD2 = target: T1, NOD2 (Homo sapiens, UniProt Q9HC29); assay: NF-κB-luciferase reporter assay in HEK293T cells transfected with NOD2; format: cell-based; conditions: for response of NOD2-transfected cells to inflammatory cytokines: acts via endogenous receptors, compared with fsNOD2 cells
T1 construct: host or cells: HEK293T
Description: Human embryonic kidney HEK293T cells (American Type Culture Collection (“ATCC,”) Manassas, Va., USA) were cultured in Dulbecco's modified Eagle's medium (Invitrogen, Carlsbad, Calif., USA) supplemented with 10% fetal calf serum (“FCS”) (PAA Laboratories GmbH, Pasching, Austria). HEK293T cells were seeded into 24 well cell culture plates at a density of 10^5 cells/ml (500 μl/well) and transfected with various expression plasmids, as previously described (Girardin 2003a) (FIG. 1).
(§1) Transfection was performed as described by Girardin et al., 2003a. HEK293T cells were transfected overnight using 1% FuGENE 6 transfection reagent (Roche Diagnostics, Mannheim, Germany) with 75 ng of the reporter plasmid pNF-kB-Luc (Stratagene, La Jolla, Calif. USA) and 1 ng p-UNO-hNODt (InvivoGen, San Diego, Calif. USA) or fsNOD2 expression plasmids (Begue et al. (2006); Chamaillard et al. (2003)). The plasmid pNF-κB-Luc is a 5.7 kb cis-reporting pNF-κB-Luc plasmid comprising an NF-κB enhancer region and a firefly luciferase gene controlled by a synthetic promoter that contains direct repeats of the transcription recognition sequences for the binding sites for NF-κB (Stratagene, Carlsbad, Calif., USA). The NOD2 3020InsC frameshift mutation was introduced using the QuikChange XL site-directed mutagenesis kit (Stratagene, Carlsbad, Calif., USA). The entire coding region was verified by sequencing and the size of the encoded product was verified by immunoblotting (Girardin et al., 2003b). A total plasmid concentration of 250 ng was achieved by addition of pcDNA3.1 vector.
Following a twenty hour transfection period, 50 μl of plasma was added into the wells containing the transfected cells. Purified peptidoglycan, diluted in plasma, from S. aureus (Sigma, St. Louis, Mo., USA) and E. coli (kind gift of Dominique Mengin-Lecreulx or InviroGen, San Diego, Calif., USA) served as positive controls. After six hours of peptidoglycan stimulation, the cell supernatant was removed and the cells were lysed with 100 μl of lysis buffer (25 mM Tris-phosphate pH 8, 8 mM MgCl2, 1 mM dithiothreitol, 15% glycerol, and 1% Triton X-100). Luciferase expression was measured from a 10 μl aliquot of cell extract using a microplate luminometer (LB960 luminometer centro, Berthold Technologies, Bad Wildbad, Germany) after addition of 100 μl of substrate buffer to a final concentration of 1.8 mM luciferin and 1 mM ATP. Each measurement was performed in triplicate. The detection level of the assay is at least 0.15 ug/ml PGN, determined by adding purified PGN to healthy donor plasma.
To validate the experimental system, NF-κB activation in HEK293T cells co-transfected with pNF-κB-Luc and pUNO-hNOD2 was tested in response to stimulation with both MPD and PGN derived from S. aureus (FIG. 2). […]

[1] = target: T2, NOD2 3020InsC frameshift mutant (fsNOD2) (Homo sapiens, UniProt Q9HC29, L1007P); assay: NF-κB-luciferase reporter assay in HEK293T cells transfected with frameshift NOD2 (fsNOD2); format: cell-based; conditions: HEK293T co-transfected with pNF-κB-Luc and NOD2 3020InsC
T2 construct: expressed in transfected cells; host or cells: HEK293T
T2 sequence (Q9HC29 1-1007 L1007P): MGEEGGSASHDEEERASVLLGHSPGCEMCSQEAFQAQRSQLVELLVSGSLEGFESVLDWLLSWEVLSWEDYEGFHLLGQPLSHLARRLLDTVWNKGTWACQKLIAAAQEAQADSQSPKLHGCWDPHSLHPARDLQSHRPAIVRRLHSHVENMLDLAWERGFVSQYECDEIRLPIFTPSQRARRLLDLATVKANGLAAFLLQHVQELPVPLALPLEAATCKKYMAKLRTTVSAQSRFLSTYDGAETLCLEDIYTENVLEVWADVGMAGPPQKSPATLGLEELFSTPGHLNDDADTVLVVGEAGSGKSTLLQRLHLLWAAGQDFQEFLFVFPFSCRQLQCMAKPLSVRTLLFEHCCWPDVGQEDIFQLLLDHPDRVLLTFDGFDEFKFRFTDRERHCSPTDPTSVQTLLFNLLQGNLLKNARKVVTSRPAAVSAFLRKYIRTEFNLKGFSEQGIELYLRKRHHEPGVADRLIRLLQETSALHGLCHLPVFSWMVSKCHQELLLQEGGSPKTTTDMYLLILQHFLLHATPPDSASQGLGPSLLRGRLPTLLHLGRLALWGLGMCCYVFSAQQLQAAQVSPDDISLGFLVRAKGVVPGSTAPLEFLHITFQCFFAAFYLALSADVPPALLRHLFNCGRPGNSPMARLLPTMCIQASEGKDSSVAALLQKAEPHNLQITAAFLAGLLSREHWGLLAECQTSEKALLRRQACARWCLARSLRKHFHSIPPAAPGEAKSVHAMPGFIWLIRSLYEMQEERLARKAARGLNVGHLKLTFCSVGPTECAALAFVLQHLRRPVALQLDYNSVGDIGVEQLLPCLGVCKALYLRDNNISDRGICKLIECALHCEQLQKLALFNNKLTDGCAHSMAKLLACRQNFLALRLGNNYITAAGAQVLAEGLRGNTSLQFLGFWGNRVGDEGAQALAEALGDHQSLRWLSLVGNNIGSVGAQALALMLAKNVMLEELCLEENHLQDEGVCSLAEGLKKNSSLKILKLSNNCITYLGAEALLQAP
Description: as §1
The NOD2 3020InsC variant comprises a Leu1007-Pro substitution in the tenth leucine-rich region followed by a premature stop codon. It activates the NF-κB pathway to the same extent as wild-type NOD2 when overexpressed, but is unable to detect MDP or PGN (Girardin et al., 2003b).
The specificity of the system was checked by transfecting an expression plasmid for frameshift NOD2 (fsNOD2), a mutant unable to activate NF-κB in response to MDP (FIG. 11E).

T1 sequence (Q9HC29 whole entry): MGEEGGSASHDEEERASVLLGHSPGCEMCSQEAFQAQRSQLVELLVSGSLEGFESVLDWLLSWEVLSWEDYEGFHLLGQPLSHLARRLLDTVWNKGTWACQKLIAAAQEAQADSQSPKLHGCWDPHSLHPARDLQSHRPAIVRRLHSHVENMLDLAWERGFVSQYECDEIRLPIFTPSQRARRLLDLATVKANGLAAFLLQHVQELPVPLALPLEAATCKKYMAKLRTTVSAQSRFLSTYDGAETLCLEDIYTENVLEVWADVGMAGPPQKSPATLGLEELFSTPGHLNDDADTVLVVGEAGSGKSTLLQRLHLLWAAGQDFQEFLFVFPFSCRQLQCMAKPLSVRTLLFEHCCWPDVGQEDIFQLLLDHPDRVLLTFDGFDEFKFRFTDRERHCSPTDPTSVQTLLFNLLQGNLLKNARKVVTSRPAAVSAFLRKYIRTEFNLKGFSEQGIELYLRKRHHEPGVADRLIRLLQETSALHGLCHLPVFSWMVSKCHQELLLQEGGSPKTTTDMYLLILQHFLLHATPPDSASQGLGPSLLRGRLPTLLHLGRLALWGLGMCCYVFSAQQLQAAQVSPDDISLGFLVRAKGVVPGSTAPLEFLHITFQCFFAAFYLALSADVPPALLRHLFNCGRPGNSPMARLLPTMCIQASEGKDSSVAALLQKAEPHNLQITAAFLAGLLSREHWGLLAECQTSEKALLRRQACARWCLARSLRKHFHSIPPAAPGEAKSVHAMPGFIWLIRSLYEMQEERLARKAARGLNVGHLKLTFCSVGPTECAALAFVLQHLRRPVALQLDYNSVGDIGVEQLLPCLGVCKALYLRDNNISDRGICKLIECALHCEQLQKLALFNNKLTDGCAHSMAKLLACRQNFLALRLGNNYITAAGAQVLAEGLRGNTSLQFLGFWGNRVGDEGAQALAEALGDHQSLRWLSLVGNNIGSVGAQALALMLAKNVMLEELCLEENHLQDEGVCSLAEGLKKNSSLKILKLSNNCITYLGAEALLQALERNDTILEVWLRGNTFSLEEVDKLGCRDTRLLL

| response of NOD2-transfected cells to inflammatory cytokines (NOD2) | luciferase / NF-κB response in fsNOD2-transfected cells [1] | Compound | NF-κB activation (luciferase expression) (NOD2; 300 pM MDP, HEK293T co-transfected with pNF-κB-Luc and pUNO-hNOD2) | signal in NOD2 reporter system (luciferase, RLU) (NOD2; 6 hours of incubation, without plasma) |
| --- | --- | --- | --- | --- |
| similarly responsive | similarly responsive | tumor necrosis factor-α [TNF-α] |  |  |
| similarly responsive | similarly responsive | interleukin 1β [IL-1β] |  |  |

| Compound | response of NOD2-transfected cells to inflammatory cytokines (NOD2) | luciferase / NF-κB response in fsNOD2-transfected cells [1] | NF-κB activation (luciferase expression) (NOD2; 300 pM MDP, HEK293T co-transfected with pNF-κB-Luc and pUNO-hNOD2) | signal in NOD2 reporter system (luciferase, RLU) (NOD2; 6 hours of incubation, without plasma) |
| --- | --- | --- | --- | --- |
| CC(=O)N[C@H]1C(O)O[C@H](CO)[C@@H](O)[C@@H]1O[C@H](C)C(=O)N[C@@H](C)C(=O)N[C@H](CCC(=O)O)C(N)=O (mixture of isomers) [MDP, muramyl dipeptide] |  | no increase in luciferase | induced NF-κB activation | positive signals |
